According to US4070469A, “Compound for the treatment of bovine mastitis” (priority 1975, dated 1978):
In brackets after ≈: the same amount, converted by molar mass. Like-named read-outs stand apart in the source and are kept apart here.

Columns and labels:
Staph.Aureus = assay: Minimal bactericidal activity (MBC) in milk, field isolates; assay type: cell-based; conditions: Staphylococcus aureus
Text: (§1) The activity of some of said nitrofuryl quinolines derivatives against Strep.uberis and Stap.Aureus in milk has been compared with the activity of some of the compounds so far utilised in the treatment of bovine mastitis. The results are shown in Table I. (The nitrofuryl quinoline derivatives have general formula [drawing 1] the meaning of R, A, R', B, Y, X and Z being given in the Table. R1 =O whenever indicated then the N-oxide is concerned; NF stands for nitrofuryl)
(§2) Minimal Bactericidal/Activity (MBC) of representative Nitrofuryl
(§3) in mcg/ml in milk at pH 7.2 - 7.4. Versus Standards (Field

Strep.uberis = assay: as above; assay type: cell-based; conditions: Streptococcus uberis
Text: as §1, §2, §3

[1] = in milk at pH 7.2 - 7.4, field isolate 2337, read-out: Minimal Bactericidal Activity (MBC), Staph.Aureus 2337
[2] = in milk at pH 7.2 - 7.4, field isolate 2372, read-out: Minimal Bactericidal Activity (MBC), Staph.Aureus 2372
[3] = in milk at pH 7.2 - 7.4, field isolate 60B, read-out: Minimal Bactericidal Activity (MBC), Strep.uberis 60B
[4] = in milk at pH 7.2 - 7.4, field isolate 127A, read-out: Minimal Bactericidal Activity (MBC), Strep.uberis 127A

| Compound | MBC (Staph.Aureus; [1]) [µg/mL] | MBC (Staph.Aureus; [2]) [µg/mL] | MBC (Strep.uberis; [3]) [µg/mL] | MBC (Strep.uberis; [4]) [µg/mL] | MBC (Staph.Aureus; read-out: Minimal Bactericidal Activity (MBC), Staph.Aureus 2337) [µg/mL] | MBC (Staph.Aureus; read-out: Minimal Bactericidal Activity (MBC), Staph.Aureus 2372) [µg/mL] | MBC (Strep.uberis; read-out: Minimal Bactericidal Activity (MBC), Strep.uberis 60B) [µg/mL] | MBC (Strep.uberis; read-out: Minimal Bactericidal Activity (MBC), Strep.uberis 127A) [µg/mL] |
| --- | --- | --- | --- | --- | --- | --- | --- | --- |
| Cc1ccc2c(-c3ccc([N+](=O)[O-])o3)cc(C)[n+]([O-])c2c1 [Compound 21] | 5 (≈ 17.6 µM) | 10 (≈ 35.2 µM) | 5 (≈ 17.6 µM) | 10 (≈ 35.2 µM) |  |  |  |  |
| O=[N+]([O-])c1ccc(-c2cc(CO)nc3ccccc23)o1 [Compound 13] | 10 (≈ 37 µM) | 5 (≈ 18.5 µM) | 5 (≈ 18.5 µM) | > 10 |  |  |  |  |
| O=C1OCCN1/N=C/c1ccc([N+](=O)[O-])o1 [Furazolidone, reference compound] | > 10 | > 10 | 10 (≈ 44.4 µM) | > 10 |  |  |  |  |
| COc1ccc2c(-c3ccc([N+](=O)[O-])o3)cc(C)[n+]([O-])c2c1 [Compound 23] | 5 (≈ 16.7 µM) | 5 (≈ 16.7 µM) | 5 (≈ 16.7 µM) | 5 (≈ 16.7 µM) |  |  |  |  |
| CCc1cc(-c2ccc([N+](=O)[O-])o2)c2cc(C)c(C)cc2[n+]1[O-] [Compound 40] | 5 (≈ 16 µM) | 5 (≈ 16 µM) | 5 (≈ 16 µM) | 10 (≈ 32 µM) |  |  |  |  |
| CO[C@H]1/C=C/O[C@@]2(C)Oc3c(C)c(O)c4c(O)c(cc(O)c4c3C2=O)NC(=O)/C(C)=C\C=C\[C@H](C)[C@H](O)[C@@H](C)[C@@H](O)[C@@H](C)[C@H](OC(C)=O)[C@@H]1C [Rifamycin, reference compound] | 0.12 (≈ 0.172 µM) | 0.12 (≈ 0.172 µM) | 3.12 (≈ 4.47 µM) | > 50 |  |  |  |  |
| CCc1ccc2nc(C)cc(-c3ccc([N+](=O)[O-])o3)c2c1 [Compound 7] | > 10 | > 10 | > 10 | > 10 |  |  |  |  |
| COc1cc2nc(C)cc(-c3ccc([N+](=O)[O-])o3)c2cc1N [Compound 34] | 5 (≈ 16.7 µM) | 5 (≈ 16.7 µM) | 0.25 (≈ 0.835 µM) | 1 (≈ 3.34 µM) |  |  |  |  |
| O=[N+]([O-])c1ccc(-c2cc(C=NO)nc3ccccc23)o1 [Compound 15] | 1 (≈ 3.53 µM) | 1 (≈ 3.53 µM) | 1 (≈ 3.53 µM) | 1 (≈ 3.53 µM) |  |  |  |  |
| NC[C@H]1O[C@H](O[C@H]2[C@H](O)[C@@H](O[C@H]3O[C@H](CO)[C@@H](O)[C@H](N)[C@H]3O)[C@H](N)C[C@@H]2N)[C@H](O)[C@@H](O)[C@@H]1O [Kanamycin, reference compound] |  |  |  |  | 12.5 (≈ 25.8 µM) | 12.5 (≈ 25.8 µM) | 100 (≈ 206 µM) | 100 (≈ 206 µM) |
| COc1cc2nc(C)cc(-c3ccc([N+](=O)[O-])o3)c2cc1OC [Compound 37] | 10 (≈ 31.8 µM) | 5 (≈ 15.9 µM) | 5 (≈ 15.9 µM) | 10 (≈ 31.8 µM) |  |  |  |  |
| Cc1ccc2nc(C)cc(-c3ccc([N+](=O)[O-])o3)c2c1 [Compound 27] | 10 (≈ 37.3 µM) | 10 (≈ 37.3 µM) | 10 (≈ 37.3 µM) | 10 (≈ 37.3 µM) |  |  |  |  |
| COc1ccc2c(-c3ccc([N+](=O)[O-])o3)cc(C(=O)O)[n+]([O-])c2c1 [Compound 25] | 1 (≈ 3.03 µM) | 5 (≈ 15.1 µM) | 0.25 (≈ 0.757 µM) | 0.5 (≈ 1.51 µM) |  |  |  |  |
| CCc1cc(-c2ccc([N+](=O)[O-])o2)c2cc(C)ccc2n1 [Compound 12] | > 10 | > 10 | > 10 | > 10 |  |  |  |  |
| Cc1cc(-c2ccc([N+](=O)[O-])o2)c2ccccc2n1 [Compound 5] | > 10 | > 10 | 10 (≈ 39.3 µM) | 10 (≈ 39.3 µM) |  |  |  |  |
| O=C(c1cc(-c2ccc([N+](=O)[O-])o2)c2ccccc2n1)N1CCOCC1 [Compound 18] | > 10 | 10 (≈ 28.3 µM) | 5 (≈ 14.2 µM) | > 10 |  |  |  |  |
| Cc1cc(-c2ccc([N+](=O)[O-])o2)[n+]([O-])c2ccccc12 [Compound 4] | 10 (≈ 37 µM) | > 10 | > 10 | > 10 |  |  |  |  |
| CNN=Cc1cc(-c2ccc([N+](=O)[O-])o2)c2ccccc2n1 [Compound 36] | > 10 | 5 (≈ 16.9 µM) | 5 (≈ 16.9 µM) | 5 (≈ 16.9 µM) |  |  |  |  |
| Cc1cc(-c2ccc([N+](=O)[O-])o2)c2ccccc2[n+]1[O-] [Compound 6] | 5 (≈ 18.5 µM) | 5 (≈ 18.5 µM) | 5 (≈ 18.5 µM) | 5 (≈ 18.5 µM) |  |  |  |  |
| CCOc1ccc2c(-c3ccc([N+](=O)[O-])o3)cc(C(=O)O)nc2c1 [Compound 17] | 1 (≈ 3.05 µM) | 0.5 (≈ 1.52 µM) | 0.03 (≈ 0.0914 µM) | 1 (≈ 3.05 µM) |  |  |  |  |
| O=[N+]([O-])c1ccc(-c2cc(C(Br)(Br)Br)nc3ccccc23)o1 [Compound 14] | 10 (≈ 20.4 µM) | > 10 | 5 (≈ 10.2 µM) | 5 (≈ 10.2 µM) |  |  |  |  |
| Cc1cc(-c2ccc([N+](=O)[O-])o2)c2ccc(Cl)cc2n1 [Compound 28] | > 10 | > 10 | > 10 | > 10 |  |  |  |  |
